What all share (assay type): cell-based
Experiment [1] deals with A431 (EGFR-WT). Briefly: Cell proliferation study (CellTiter-Glo, 72 hrs), A431. Conditions: Homo sapiens, A-431, A431 cells, CTG, * = average of multiple measurements. Put shortly:
(§1)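 Cells were seeded overnight, then exposed for 72 hrs at 37 °C, 5% CO2 to 9 concentrations in 3.16-fold steps, 0.1% DMSO final, triplicate wells. Viability was read by CellTiter-Glo luminescence, with a T0 plate read at dosing. IC50 came from nonlinear sigmoidal dose-response fits.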

Experiment [2] addresses Ba/F3 EGFR-V769_D770insASV (Homo sapiens, UniProt P00533, DUP767-769, cells depend on it). Put plainly: Cell proliferation study (CellTiter-Glo, 72 hrs), Ba/F3 EGFR-V769_D770insASV. As to conditions: CTG, * = average of multiple measurements, read-out: Ba/F3 EGFR-V769_D770insASV IC50. The gist of the method: as §1
For orientation: ATP-based viability assays read luminescence as a measure of living cells.

Experiment [3] addresses Ba/F3 EGFR-D770-N771ins_SVD (Homo sapiens, UniProt P00533, DUP768-770, cells depend on it). Put plainly: Cell proliferation study (CellTiter-Glo, 72 hrs), Ba/F3 EGFR-D770-N771ins_SVD. As to conditions: CTG, * = average of multiple measurements, read-out: Ba/F3 EGFR-D770-N771ins_SVD IC50. The gist of the method:
as §1

Structures are written as SMILES.

Sequence of Ba/F3 EGFR-V769_D770insASV (P00533 with tags, fused parts or gaps DUP767-769): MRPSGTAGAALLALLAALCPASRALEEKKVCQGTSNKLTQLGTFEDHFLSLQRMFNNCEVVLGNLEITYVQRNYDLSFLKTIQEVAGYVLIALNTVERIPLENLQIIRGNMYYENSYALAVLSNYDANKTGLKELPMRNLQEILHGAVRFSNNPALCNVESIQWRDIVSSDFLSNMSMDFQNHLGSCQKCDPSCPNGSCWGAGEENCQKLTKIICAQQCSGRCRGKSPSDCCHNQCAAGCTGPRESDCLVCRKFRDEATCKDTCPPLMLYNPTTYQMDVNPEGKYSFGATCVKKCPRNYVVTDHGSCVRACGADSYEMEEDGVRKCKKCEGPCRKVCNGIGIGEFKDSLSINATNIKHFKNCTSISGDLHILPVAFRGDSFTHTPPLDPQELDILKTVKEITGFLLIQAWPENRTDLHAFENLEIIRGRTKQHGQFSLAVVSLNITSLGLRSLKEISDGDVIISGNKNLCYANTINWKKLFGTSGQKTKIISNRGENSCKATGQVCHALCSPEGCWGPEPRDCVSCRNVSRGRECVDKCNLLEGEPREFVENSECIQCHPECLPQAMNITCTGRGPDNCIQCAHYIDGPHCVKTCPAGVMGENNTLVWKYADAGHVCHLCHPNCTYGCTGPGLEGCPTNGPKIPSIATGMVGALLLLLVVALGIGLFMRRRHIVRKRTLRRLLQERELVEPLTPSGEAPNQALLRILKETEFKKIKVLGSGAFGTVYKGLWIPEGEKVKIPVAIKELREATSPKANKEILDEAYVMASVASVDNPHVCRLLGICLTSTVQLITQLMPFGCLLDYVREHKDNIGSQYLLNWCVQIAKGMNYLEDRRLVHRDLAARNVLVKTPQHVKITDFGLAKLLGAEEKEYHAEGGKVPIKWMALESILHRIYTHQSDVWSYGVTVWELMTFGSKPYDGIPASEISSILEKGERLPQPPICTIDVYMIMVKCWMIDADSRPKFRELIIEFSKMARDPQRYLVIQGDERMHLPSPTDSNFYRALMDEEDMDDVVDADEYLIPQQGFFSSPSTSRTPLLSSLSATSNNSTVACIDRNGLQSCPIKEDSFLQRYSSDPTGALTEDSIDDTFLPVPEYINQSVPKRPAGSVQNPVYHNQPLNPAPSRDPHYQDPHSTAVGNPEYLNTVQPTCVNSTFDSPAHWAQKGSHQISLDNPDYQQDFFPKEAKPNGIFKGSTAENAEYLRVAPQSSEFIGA
Sequence of Ba/F3 EGFR-D770-N771ins_SVD (P00533 with tags, fused parts or gaps DUP768-770): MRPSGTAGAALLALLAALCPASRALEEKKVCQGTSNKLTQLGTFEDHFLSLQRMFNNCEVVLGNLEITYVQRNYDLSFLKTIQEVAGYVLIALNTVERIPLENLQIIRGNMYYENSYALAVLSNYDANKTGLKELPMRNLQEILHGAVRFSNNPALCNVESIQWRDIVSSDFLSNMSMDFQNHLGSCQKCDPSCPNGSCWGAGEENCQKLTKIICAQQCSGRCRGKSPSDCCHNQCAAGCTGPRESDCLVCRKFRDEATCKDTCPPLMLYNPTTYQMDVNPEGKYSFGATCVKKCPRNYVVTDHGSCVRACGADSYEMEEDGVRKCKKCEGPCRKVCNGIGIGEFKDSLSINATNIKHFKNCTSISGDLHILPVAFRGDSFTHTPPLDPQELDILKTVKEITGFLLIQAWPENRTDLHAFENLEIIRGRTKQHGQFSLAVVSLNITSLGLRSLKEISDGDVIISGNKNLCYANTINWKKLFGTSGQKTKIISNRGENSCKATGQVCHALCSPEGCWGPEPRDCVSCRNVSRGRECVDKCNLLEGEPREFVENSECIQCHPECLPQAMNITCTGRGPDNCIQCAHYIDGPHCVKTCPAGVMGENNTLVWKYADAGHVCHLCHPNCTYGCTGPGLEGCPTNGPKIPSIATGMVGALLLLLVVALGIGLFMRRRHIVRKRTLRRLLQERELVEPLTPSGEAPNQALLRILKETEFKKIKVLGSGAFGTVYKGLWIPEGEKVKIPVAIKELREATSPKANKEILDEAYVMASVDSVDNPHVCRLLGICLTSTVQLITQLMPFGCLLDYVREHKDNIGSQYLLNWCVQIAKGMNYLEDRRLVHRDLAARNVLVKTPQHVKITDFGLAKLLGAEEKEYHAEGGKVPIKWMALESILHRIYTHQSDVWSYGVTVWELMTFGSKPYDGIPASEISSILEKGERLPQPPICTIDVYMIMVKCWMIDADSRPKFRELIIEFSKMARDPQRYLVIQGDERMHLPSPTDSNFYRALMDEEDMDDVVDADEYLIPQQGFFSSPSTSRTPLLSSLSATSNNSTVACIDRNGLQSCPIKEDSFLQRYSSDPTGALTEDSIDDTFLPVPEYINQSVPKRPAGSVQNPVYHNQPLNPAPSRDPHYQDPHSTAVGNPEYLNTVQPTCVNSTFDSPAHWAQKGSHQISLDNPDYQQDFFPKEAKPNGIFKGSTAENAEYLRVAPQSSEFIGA

The term IC50 denotes the concentration that gives 50% inhibition. Low values mean higher potency, high ones lower potency. For the compound `C=CC(=O)Nc1cc(Nc2ncc(C(=O)OC(C)C)c(N3CC(C)(C)c4nc(C)ccc43)n2)c(OC(F)F)cc1N(C)CCN(C)C` [Example 81, isopropyl 2-((5-acrylamido-2-(difluoromethoxy)-4-((2-(dimethylamino)eth-yl)(methyl)amino)phenyl)amino)-4-(3,3,5-trimethyl-2,3-dihydro-1H-pyrrolo[3,2-b]pyridin-1-yl)pyrimidine-5-carboxylate], the IC50 in experiment [1] turned out to be 128 nM. Further, the GI50 was 29.3 nM in experiment [2] and 9 nM in experiment [3].
For `C=CC(=O)Nc1cc(Nc2ncc(C(=O)OC(C)C)c(N3CC(C)(C)c4nc(C)ccc43)n2)c(OC)nc1N(C)CCN(C)C` [Example 29, isopropyl 2-((5-acrylamido-6-((2-(dimethylami-no)ethyl)(methyl)amino)-2-methoxy-pyridin-3-yl)amino)-4-(3,3,5-trimethyl-2,3-dihydro-1H-pyrrolo[3,2-b]pyridin-1-yl)pyrimidine-5-carboxylate] the same measures were 282 nM, 16 nM and 13.3 nM.
`[2H]C([2H])([2H])C1(C([2H])([2H])[2H])CN(c2nc(Nc3cc(NC(=O)C=C)c(N(C)CCN(C)C)cc3OC)ncc2C(=O)OC(C)C)c2ccc(C)nc21` [Example 73, isopropyl 2-((5-acrylamido-4-((2-(dimethylami-no)ethyl)(methyl)amino)-2-methoxy-phenyl)amino)-4-(5-methyl-3,3-bis(methyl-d3)-2,3-dihydro-1H-pyrrolo[3,2-b]pyridin-1-yl)pyrimidine-5-carboxylate] gave an IC50 in experiment [1] of 90 nM. Further, the figures for the GI50 in experiment [2] and in experiment [3] were 34.8 nM and 12.3 nM, respectively.
Turning to `C=CC(=O)Nc1cc(Nc2ncc(C(=O)OC(C)C)c(N3CC(C)(C)c4ccccc43)n2)c(OC)cc1N(C)CCN(C)C` [Example 85, isopropyl 2-((5-acrylamido-4-((2-(dimethylami-no)ethyl)(methyl)amino)-2-methoxy-phenyl)amino)-4-(3,3-dimethylindolin-1-yl)pyrimidine-5-carboxylate], the IC50 in experiment [1] came to 561 nM. In addition, the GI50 was 13.8 nM in experiment [2] and 23.6 nM in experiment [3].
In experiment [1], `[2H]C1([2H])N(c2nc(Nc3cc(NC(=O)C=C)c(N(C)C[C@@H]4CCCN4C)cc3OC)ncc2C(=O)OC(C)C)c2ccc(C)nc2C1(C)C` [Example 52, isopropyl (S)-2-((5-acrylamido-2-methoxy-4-(methyl((1-methylpyrrolidin-2-yl)methyl)amino)phenyl)amino)-4-(3,3,5-trimethyl-2,3-dihydro-1H-pyrrolo[3,2-b]pyridin-1-yl-2,2-d2)pyrimidine-5-carboxylate] yielded an IC50 of 185 nM. For the same compound, the GI50 worked out at 61.9 nM in experiment [2] and 24.1 nM in experiment [3].
In turn, `C=CC(=O)Nc1cc(Nc2ncc(C(=O)OC(C)C)c(N3CC(C)(C)c4ncccc43)n2)c(OC)cc1N(C)CCN(C)C` [Example 2, isopropyl 2-((5-acrylamido-4-((2-(dimethylami-no)ethyl)(methyl)amino)-2-methoxy-phenyl)amino)-4-(3,3-dimethyl-2,3-dihydro-1H-pyrrolo[3,2-b]pyridin-1-yl)pyrimidine-5-carboxylate] had an IC50 in experiment [1] of 479 nM. Besides, the GI50 is 35 nM in experiment [2] and 26.8 nM in experiment [3].
For `[2H]C([2H])([2H])N(CCN(C)C)c1cc(OC)c(Nc2ncc(C(=O)OC(C)C)c(N3c4ccc(C)nc4C(C)(C)C3([2H])[2H])n2)cc1NC(=O)C=C` [Example 71, isopropyl 2-((5-acrylamido-4-((2-(dimethylami-no)ethyl)(methyl-d3)amino)-2-methoxy-phenyl)amino)-4-(3,3,5-trimethyl-2,3-dihydro-1H-pyrrolo[3,2-b]pyridin-1-yl-2,2-d2)pyrimidine-5-carboxylate] the same measures were 65.5 nM, 30.4 nM and 14.8 nM.
For `C=CC(=O)Nc1cc(Nc2ncc(C(=O)OC(C)C)c(N3CC(C)(C)c4nc(C)ccc43)n2)c(OC)cc1N1CC(N(C)C)C1` [Example 40, isopropyl 2-((5-acrylamido-4-(3-(dimethylami-no)azetidin-1-yl)-2-methoxyphenyl)ami-no)-4-(3,3,5-trimethyl-2,3-dihydro-1H-pyrrolo[3,2-b]pyridin-1-yl)pyrimidine-5-carboxylate] the same measures were 295 nM, 44.2 nM and 33.9 nM.
For `[2H]C1([2H])N(c2nc(Nc3cc(NC(=O)C=C)c(N4CC[C@@H](N(C)C)C4)cc3OC)ncc2C(=O)OC(C)C)c2ccc(C)nc2C1(C)C` [Example 49, isopropyl (R)-2-((5-acrylamido-4-(3-(dimethyl-amino)pyrrolidin-1-yl)-2-methoxy-phenyl)amino)-4-(3,3,5-trimethyl-2,3-dihydro-1H-pyrrolo[3,2-b]pyridin-1-yl-2,2-d2)pyrimidine-5-carboxylate], in that order: 1420 nM, 24.4 nM and 31.3 nM.
`C=CC(=O)Nc1cc(Nc2ncc(C(=O)OC(C)C)c(N3CC(C)(C)c4nc(C)ccc43)n2)c(OC)cc1N(C)CCN(CC)CC` [Example 56, isopropyl 2-((5-acrylamido-4-((2-(diethylami-no)ethyl)(methyl)amino)-2-methoxy-phenyl)amino)-4-(3,3,5-trimethyl-2,3-dihydro-1H-pyrrolo[3,2-b]pyridin-1-yl)pyrimidine-5-carboxylate]: the IC50 in experiment [1] turned out to be 301 nM. The GI50 in experiment [2] stood at 91.1 nM; in experiment [3], 33.5 nM.
For `C=CC(=O)Nc1cc(Nc2ncc(C(=O)OC(C)C)c(N3CC(C)(C)c4nc(C)ccc43)n2)c(OC)cc1N(C)CCN1CCC1` [Example 67, isopropyl 2-((5-acrylamido-4-((2-(azetidin-1-yl)ethyl)(methyl)amino)-2-methoxy-phenyl)amino)-4-(3,3,5-trimethyl-2,3-dihydro-1H-pyrrolo[3,2-b]pyridin-1-yl)pyrimidine-5-carboxylate], in that order: 515 nM, 37.1 nM and 23.9 nM.
For `C=CC(=O)Nc1cc(Nc2ncc(C(=O)OC(C)C)c(N3CC(C)(C)c4nc(C#CC)ccc43)n2)c(OC)cc1N(C)CCN(C)C` [Example 30, isopropyl 2-((5-acrylamido-4-((2-(dimethylami-no)ethyl)(methyl)amino)-2-methoxy-phenyl)amino)-4-(3,3-dimethyl-5-(prop-1-yn-1-yl)-2,3-dihydro-1H-pyrrolo[3,2-b]pyridin-1-yl)pyrimidine-5-carboxylate], in that order: 557 nM, 21.5 nM and 7.6 nM.
Regarding `C=CC(=O)Nc1cc(Nc2ncc(C(=O)OC(C)C)c(N3CC(C)(C)c4cc(F)c(F)cc43)n2)c(OC)cc1N(C)CCN(C)C` [Example 91, isopropyl 2-((5-acrylamido-4-((2-(dimethylami-no)ethyl)(methyl)amino)-2-methoxy-phenyl)amino)-4-(5,6-difluoro-3,3-dimethylindolin-1-yl)pyrimidine-5-carboxylate], inhibition in experiment [1] was half-maximal at 1080 nM (IC50). Besides, the GI50 in experiment [2] stood at 32.2 nM; in experiment [3], 37.5 nM.
For `[2H]C([2H])([2H])N(CCN(C)c1cc(OC)c(Nc2ncc(C(=O)OC(C)C)c(N3CC(C)(C)c4nc(C)ccc43)n2)cc1NC(=O)C=C)C([2H])([2H])[2H]` [Example 42, isopropyl 2-((5-acrylamido-4-((2-(bis(methyl-d3)amino)ethyl)(methyl)amino)-2-methoxyphenyl)amino)-4-(3,3,5-trimethyl-2,3-dihydro-1H-pyrrolo[3,2-b]pyridin-1-yl)pyrimidine-5-carboxylate] the same measures were 114 nM, 23.6 nM and 11.3 nM.
For `[2H]C([2H])([2H])N(CCN(C)C)c1cc(OC)c(Nc2ncc(C(=O)OC(C)C)c(N3CC(C)(C)c4nc(C)ccc43)n2)cc1NC(=O)C=C` [Example 36, isopropyl 2-((5-acrylamido-4-((2-(dimethylami-no)ethyl)(methyl-d3)amino)-2-methoxy-phenyl)amino)-4-(3,3,5-trimethyl-2,3-dihydro-1H-pyrrolo[3,2-b]pyridin-1-yl)pyrimidine-5-carboxylate] the same measures were 353 nM, 22.8 nM and 14.8 nM.
For `C=CC(=O)Nc1cc(Nc2ncc(C(=O)OC(C)C)c(N3CC4(CC4)c4nc(C)ccc43)n2)c(OC)cc1N1C[C@@H](F)C[C@@H]1CN(C)C` [Example 64, isopropyl 2-((5-acrylamido-4-((2R,4S)-2-((di-methylamino)methyl)-4-fluoro-pyrrolidin-1-yl)-2-methoxy-phenyl)amino)-4-(5′-methyl-spiro(cyclopropane-1,3′-pyrrolo[3,2-b]pyridin)-1′(2′H)-yl)pyrimidine-5-carboxylate], in that order: 39.7 nM, 12.3 nM and 8.8 nM.
Regarding `C=CC(=O)Nc1cc(Nc2ncc(C(=O)OC(C)C)c(N3CC(C)(C)c4nc(C)ccc43)n2)c(OC)cc1N(C)C[C@H]1CCCN1C` [Example 62, isopropyl (R)-2-((5-acrylamido-2-methoxy-4-(methyl((1-methylpyrrolidin-2-yl)methyl)amino)phenyl)amino)-4-(3,3,5-trimethyl-2,3-dihydro-1H-pyrrolo[3,2-b]pyridin-1-yl)pyrimidine-5-carboxylate], the IC50 in experiment [1] stood at 120 nM. In addition, the values for the GI50 in experiment [2] and in experiment [3] were 16 nM and 12.3 nM, respectively.
